Data: article PMC4079550 (Theriogenology, 2014)

Key:
male C57/Bl6 mice [1] = assay: Effect on spermatogenesis in vivo; design: species or system mouse
male C57/Bl6 mice [2] = assay: Testicular histology after treatment in vivo; design: species or system mouse; conditions: single dose, Bouin's fixative, Hematoxylin-Periodic acid Schiff's stain, Figure 3
mouse fibroblasts = assay: LDH release cytotoxicity experiment using mouse fibroblasts; assay type: cell-based; conditions: at 72 hours, P<0.01 between the two
male C57/Bl6 mice [3] = assay: Systemic toxicity: complete blood counts and routine chemistries; assay type: in vivo, mouse; conditions: melphalan alone 7.5 mg/kg ip once, data not shown
Sertoli cells = assay: Anti-Mullerian hormone; assay type: cell-based, Sprague–Dawley rat; conditions: 20 uM, after 24 and 48 hours of incubation; bright staining in control cultures
murine testicular cells = assay: Microscopic appearance of testicular cell cultures; assay type: cell-based, Sprague–Dawley rat; conditions: 20 μM, over 72 hours, Figure 2
mice = conditions: ref [24]; cited from earlier work
[4] = melphalan 7.5 mg/kg ip once on day 0, Week 4, n = 3 mice
[5] = melphalan 7.5 mg/kg ip once on day 0, Week 12, n = 3 mice

SMILES	Daily Sperm Production/testis (male C57/Bl6 mice [1]; [4])	Spermatids/Testis (male C57/Bl6 mice [1]; [4])	Spermatids/mg of Tissue (male C57/Bl6 mice [1]; [4])	Daily Sperm Production/testis (male C57/Bl6 mice [1]; [5])	Spermatids/Testis (male C57/Bl6 mice [1]; [5])	Spermatids/mg of Tissue (male C57/Bl6 mice [1]; [5])	Testis histology at four weeks (male C57/Bl6 mice [2])	LDH release (mouse fibroblasts)	Lymphocytes count at 4 weeks (male C57/Bl6 mice [3]; 4 weeks)	Lymphocyte count at 12 weeks (male C57/Bl6 mice [3]; 12 weeks)	Staining for AMH (marker of Sertoli cells) (Sertoli cells)	Microscopic appearance of cultures compared to control cultures (murine testicular cells)	Increase of contraceptive efficacy by conjugation to FSHβ (mice)
N[C@@H](Cc1ccc(N(CCCl)CCCl)cc1)C(=O)O [Melphalan]	0.515±0.013 ×10^6	2.5±0.06 ×10^6	0.054±0.003 ×10^6	1.9±0.12 ×10^6	9.2±0.57 ×10^6	0.106±0.10 ×10^6	Marked loss of spermatocytes and spermatids	20 % of maximal LDH release	slight, non-significant reduction	normal	very little	marked cell death	
NNC(=O)c1nn(Cc2ccc(Cl)cc2Cl)c2ccccc12 [adjudin]													10,000 fold
